Experimental data from US5462936A, “Benzothiazepine derivatives” (Shionogi & Co., Ltd., priority 1991, dated 1995).

Columns and labels:
cultured cardiac cells = experiment: Anti-hypoxia action on cultured cardiac cells (inhibition of CPK leakage); format: cell-based, rat (newborn Crj-SD); settings: Rattus norvegicus, read-out: Anti-hypoxia Activity (%), rate of inhibition on CPK leakage
Protocol: Anti-hypoxia action of the compounds of the present invention were investigated through studying their action in connection with the protection of cardiomuscular cells.
Primary culture of cardiac cells was prepared from newborn Crj-SD rats (2-3 day old) and used in the experiment. The primary culture was prepared according to the method described by Jones R. L. et al., Am. J. Pathol., 135, 541-556, 1989. Thus, cardiac cells were isolated from ventricle muscle using collagenase and pancreatin, and then the cardiac cells were separated and purified from cell debris, erythrocytes, and fibroblasts by means of Percoll density-gradient centrifugation. The cells were spread on a culture plate at a ratio of 2-3×10^5 cells/3.5 cm plate, and the cells were cultured for two days in Dulbecco's Modified Eagle's Medium (DMEM) containing 10% Fetal Bovine Serum (FBS) in an incubator (5% CO2 /95% Air) kept at 37° C. After sufficient growth of the cardiac cells, the culture medium was changed to DMEM free from FBS, and the culture was continued additional one day. The cells thus obtained were used in the experiment.
Hypoxia was generated using Gas Pak™ Anaerobic Chamber (BBL) which produces hypoxia by capturing residual O2 and changing it into H2 0 by the action of a H2 /CO2 generating bag and catalyst. The cardiac cell plate, wherein the culture medium had been changed to DMEM which is free from FBS and glucose, was set in the chamber, and the chamber was placed in an incubator. Anti-hypoxia activity of test compounds was determined by measuring inhibition rate of leakage of creatine phosphokinase activity into the culture medium.
The compounds tested were all dissolved in DMSO using HCO-50 as a solubilizing agent (DMSO:HCO-50=9:1), and directly charged onto the culture plate. The final concentrations of DMSO and HCO-50 in the culture medium were adjusted to 0.09% and 0.01% respectively. CPK activity was measured by colorimetry (Wako Kit) modified from Oliver method.
The numerical values in the table show cardiac cells-protecting activity of test compounds in terms of the rate (%) of inhibition on CPK leakage determined in connection with the test compounds when the amount of the CPK leakage for negative control (no addition of the test compounds) was defined as 100%.

Calcium Channel = Calcium Channel (Oryctolagus cuniculus, UniProt P15381); experiment: Calcium channel antagonism: relaxing action on extracted blood vessel (rabbit femoral artery, contracture by 50 mM KCl); settings: 50 mM KCl contracture, 50% of maximum relaxing (0.1 mM papaverine)
Chain of Calcium Channel (P15381 whole entry): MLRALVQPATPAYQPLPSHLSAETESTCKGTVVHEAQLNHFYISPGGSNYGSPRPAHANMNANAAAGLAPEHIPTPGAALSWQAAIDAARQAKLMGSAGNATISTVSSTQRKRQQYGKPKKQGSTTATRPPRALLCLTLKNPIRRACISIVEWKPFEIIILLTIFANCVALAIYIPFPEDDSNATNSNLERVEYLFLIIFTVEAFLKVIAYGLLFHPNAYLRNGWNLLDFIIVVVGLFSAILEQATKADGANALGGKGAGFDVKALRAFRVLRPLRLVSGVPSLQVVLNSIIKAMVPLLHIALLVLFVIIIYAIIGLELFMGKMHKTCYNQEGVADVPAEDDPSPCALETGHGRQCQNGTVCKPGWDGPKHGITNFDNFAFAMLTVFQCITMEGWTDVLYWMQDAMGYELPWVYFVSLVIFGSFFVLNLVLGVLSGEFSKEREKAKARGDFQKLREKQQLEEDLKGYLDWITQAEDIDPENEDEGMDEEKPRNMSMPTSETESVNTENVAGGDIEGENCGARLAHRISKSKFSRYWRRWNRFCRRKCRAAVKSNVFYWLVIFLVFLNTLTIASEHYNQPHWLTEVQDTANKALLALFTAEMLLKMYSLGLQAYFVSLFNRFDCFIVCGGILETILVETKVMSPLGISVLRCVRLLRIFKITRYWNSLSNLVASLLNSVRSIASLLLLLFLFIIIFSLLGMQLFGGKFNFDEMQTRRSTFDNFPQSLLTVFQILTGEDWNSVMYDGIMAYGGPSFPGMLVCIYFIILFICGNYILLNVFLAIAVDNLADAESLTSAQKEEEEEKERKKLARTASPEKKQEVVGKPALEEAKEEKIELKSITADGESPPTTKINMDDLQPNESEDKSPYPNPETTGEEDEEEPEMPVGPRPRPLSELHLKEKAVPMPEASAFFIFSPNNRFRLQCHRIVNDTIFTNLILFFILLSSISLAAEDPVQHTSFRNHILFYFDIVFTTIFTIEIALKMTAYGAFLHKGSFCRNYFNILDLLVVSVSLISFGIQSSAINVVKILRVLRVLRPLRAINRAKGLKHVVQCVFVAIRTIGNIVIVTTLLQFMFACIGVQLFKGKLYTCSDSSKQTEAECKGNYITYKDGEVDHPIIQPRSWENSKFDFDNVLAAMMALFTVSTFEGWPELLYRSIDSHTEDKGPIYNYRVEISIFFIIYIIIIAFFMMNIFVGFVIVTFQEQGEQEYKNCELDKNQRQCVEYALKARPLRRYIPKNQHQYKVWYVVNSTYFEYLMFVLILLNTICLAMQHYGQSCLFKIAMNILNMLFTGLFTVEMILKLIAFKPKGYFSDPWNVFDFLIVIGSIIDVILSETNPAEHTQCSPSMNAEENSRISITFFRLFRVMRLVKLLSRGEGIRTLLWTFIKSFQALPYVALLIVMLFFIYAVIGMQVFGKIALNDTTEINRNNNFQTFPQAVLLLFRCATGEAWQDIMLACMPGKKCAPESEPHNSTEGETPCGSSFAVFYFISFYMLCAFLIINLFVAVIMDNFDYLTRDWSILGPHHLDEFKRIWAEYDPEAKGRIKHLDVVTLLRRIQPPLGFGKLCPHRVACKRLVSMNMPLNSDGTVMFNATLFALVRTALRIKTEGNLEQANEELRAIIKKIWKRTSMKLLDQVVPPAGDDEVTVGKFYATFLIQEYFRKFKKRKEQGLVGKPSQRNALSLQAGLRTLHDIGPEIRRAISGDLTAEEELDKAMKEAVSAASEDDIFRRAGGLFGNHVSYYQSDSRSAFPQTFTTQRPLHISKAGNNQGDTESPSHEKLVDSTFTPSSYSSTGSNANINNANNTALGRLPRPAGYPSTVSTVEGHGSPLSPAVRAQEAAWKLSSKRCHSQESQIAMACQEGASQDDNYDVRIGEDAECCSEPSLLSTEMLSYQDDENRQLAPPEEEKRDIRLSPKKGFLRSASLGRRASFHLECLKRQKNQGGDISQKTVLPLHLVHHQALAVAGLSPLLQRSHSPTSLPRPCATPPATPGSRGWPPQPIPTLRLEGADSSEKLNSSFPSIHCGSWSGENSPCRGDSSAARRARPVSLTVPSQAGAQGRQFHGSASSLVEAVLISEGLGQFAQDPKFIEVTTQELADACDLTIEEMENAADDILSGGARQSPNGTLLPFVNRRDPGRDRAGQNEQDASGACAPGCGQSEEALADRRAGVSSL
Chain of Calcium Channel (P13806 27-960 partner limits assumed): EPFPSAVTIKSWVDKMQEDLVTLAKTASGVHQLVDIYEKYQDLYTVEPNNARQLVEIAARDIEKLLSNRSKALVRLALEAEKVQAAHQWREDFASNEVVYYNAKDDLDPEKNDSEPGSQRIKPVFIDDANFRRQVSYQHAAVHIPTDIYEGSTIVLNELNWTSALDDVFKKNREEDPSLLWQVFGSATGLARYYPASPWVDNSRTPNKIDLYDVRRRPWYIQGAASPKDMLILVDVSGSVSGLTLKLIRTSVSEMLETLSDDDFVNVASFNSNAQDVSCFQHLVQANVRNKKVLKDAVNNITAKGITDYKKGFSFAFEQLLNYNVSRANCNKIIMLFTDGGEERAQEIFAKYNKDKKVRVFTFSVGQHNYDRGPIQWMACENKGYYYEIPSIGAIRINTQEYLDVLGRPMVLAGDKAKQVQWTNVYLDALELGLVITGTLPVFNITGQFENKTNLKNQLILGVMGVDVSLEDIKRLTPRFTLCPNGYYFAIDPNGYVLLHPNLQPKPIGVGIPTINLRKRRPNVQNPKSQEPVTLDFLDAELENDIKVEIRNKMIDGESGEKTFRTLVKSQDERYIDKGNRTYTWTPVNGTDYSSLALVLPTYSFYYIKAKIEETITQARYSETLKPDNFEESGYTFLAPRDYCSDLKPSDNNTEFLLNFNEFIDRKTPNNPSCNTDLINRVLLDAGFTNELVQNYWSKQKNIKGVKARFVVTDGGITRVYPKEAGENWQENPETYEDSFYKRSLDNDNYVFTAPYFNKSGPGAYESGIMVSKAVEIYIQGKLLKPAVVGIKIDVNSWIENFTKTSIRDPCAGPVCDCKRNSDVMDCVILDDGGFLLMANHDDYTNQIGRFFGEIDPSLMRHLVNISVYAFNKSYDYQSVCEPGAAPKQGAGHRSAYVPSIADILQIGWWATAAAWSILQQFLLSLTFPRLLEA
Chain of Calcium Channel (P13806 961-1106 partner limits assumed): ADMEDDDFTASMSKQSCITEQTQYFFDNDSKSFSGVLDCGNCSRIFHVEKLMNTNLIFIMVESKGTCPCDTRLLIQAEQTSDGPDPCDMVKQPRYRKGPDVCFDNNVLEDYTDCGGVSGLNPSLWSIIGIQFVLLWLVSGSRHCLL
Protocol: Calcium Channel Antagonism and […] Action (Relaxing Action on Extracted Blood Vessel)
Male rabbits weighing 2-3 kg (Rabiton, Japanese albino species) were anesthetized through intravenous administration of pentobarbital (50 mg/kg), and sacrificed by bloodletting through dissection of axillary artery. Femoral artery was extracted, connective tissue surrounding the artery was removed, and helical specimen was prepared. The specimen was suspended in an organ bath (20 cc) filled with 37° C. Krebs-Henseleit nutritious solution and bubbled with a 95% O2 +5% CO2 mixed gas. 1.5 g of resting tension was loaded on femoral artery. Isometric change of the tension of the specimen was recorded on a thermal recorder (Nippon Koden WT-685G) via F-D pickup Nippon Koden (TB611T) and Preamp (Nippon Koden). Ca-antagonism of a test compound was evaluated by observing relaxing action due to accumulative addition of the compound on the contracture caused by the application of 50 mM KCl. α-Blocking action was similarly evaluated by observing such relaxing action on the contracture caused by the application of 1 μM norepinephrine (NE). […] The concentration of a given compound, which is necessary for giving 50% of the maximum relaxing (IC50), was determined using the above system.

[1] = tested on: cardiac muscle damage due to ischemia; experiment: Anti-necrosis activity (left coronary ligation and reperfusion, CPK retention in left ventricle); format: in vivo, rat (Wistar); settings: Rattus norvegicus; for inhibition in vivo at 0.3 mg/kg: 0.3 mg/kg iv
Protocol: Male Sic Wistar rats weighing 200-250 g were anesthetized with urethane (1 g/kg), and ramus descendens of the left coronaria was ligated for 20 minutes and then reperfused according to the method described by Hock et al (Hock, […]., Am. Heart J., 109 222, 1985). […] For three hours after the reperfusion, the rats were subjected to heat insulation on a warming mat. After 120 minutes, the hearts were extracted, and the free walls of the left ventricles were frozen and storred until determination of CPK activity. CPK activity was determined according to the method of Bernauer, W. (Arch. int. Pharmacodyn., 231 90, 1978) after minor modification. Thus, the extracted tissue was homogenized in 10 volumes of 0.1M Tris/HCl (pH 7.5) containing 1 mM mercaptoethanol and centrifuged at 20,000 g for 20 minutes. The supernatant was used for determination of CPK activity, which was conducted using a commercially available kit (CPK-Test, Wako). CPK was determined using serum CPK as a standard and expressed with "U/mg protein". […] The degree of the inhibition was measured in terms of the CPK activity retained in the left ventricle. The test results are shown in Table 7, wherein percentage of the retention (%) at each dose was calculated based on the following equation.

[2] = tested on: spontaneous hypertensive rats (SHR); experiment: Action on blood pressure and heart rate of not-anesthetized SHR; format: in vivo, rat (SHR); settings: 30 mg/kg PO, 2 and 4 hours after administration; for Antihypertensive action (%): decrease in SBP
Protocol: Action of the compounds of the invention on blood pressure and heart rate of not-anesthetized spontaneous hypertensive rats (SHR)
Male Japanese Charles-River SHR (13-17 week old) were used in the experiment (S. Matsuda, J. Pharmacol. Method, 17 361, 1987). Systolic blood pressure (SBP) and heart rate of the animals were measured non-invasively (indirectly) using hemadynamometer for caudal artery pressure (6 channel type) before the administration of test compounds, at 2 and 4 hours after administration. Test compounds were dissolved in DMSO (100%) and orally administered. Decreased values in SBP and heart rate determined 2 and 4 hours after administration when compared with those determined before administration are shown in percentage (%) in the following table.

With `COc1ccc([C@@H]2Sc3cc(Cl)ccc3N(CCCN3CCN(c4ccccc4)CC3)C(=O)[C@@H]2OC(C)=O)cc1` (relative stereo) [Compound I-1, 3-Acetoxy-5-[3-(4,phenyl-1-piperazinyl)propyl]-2,3-dihydro-2-(4-metoxyphenyl)-8-chloro-1,5-benzothiazepin-4(5H)-one] the inhibition at 10 µM (cultured cardiac cells) was 66%.
Work on `COc1ccc([C@@H]2Sc3cc(Cl)ccc3N(CCCN3CCN(c4ccccn4)CC3)C(=O)[C@@H]2OC(C)=O)cc1` (relative stereo) [Compound I-3, 3-Acetoxy-5-[3-(4-(2-piridyl)1-piperazinyl)propyl]-2,3-dihydro-2-(4-methoxyphenyl)-8-chloro-1,5-benzothiazepin-4(5H)-one] yielded an inhibition at 1 µM (cultured cardiac cells) of 34%.
`COc1ccc([C@@H]2Sc3cc(Cl)ccc3N(CCCN3CCN(Cc4ccc5c(c4)OCO5)CC3)C(=O)[C@@H]2OC(C)=O)cc1` (relative stereo) [Compound I-5] gave an IC50 (Calcium Channel) of 250 nM and an inhibition at 10 µM (cultured cardiac cells) of 66%.
`COc1ccc([C@@H]2Sc3cc(Cl)ccc3N(CCCN3CCN(C(=O)c4ccco4)CC3)C(=O)[C@@H]2OC(C)=O)cc1` (relative stereo) [Compound I-7, 3-Acetoxy-5-[3-(4-(2-furoyl)-1-piperazinyl)propyl]-2,3-dihydro-2-(4-methoxyphenyl)-8-chloro-1,5-benzothiazepin-4(5H)-one] gave an inhibition at 1 µM (cultured cardiac cells) of 36%.
With `COc1ccc([C@@H]2Sc3cc(Cl)ccc3N(CCN3CCC(c4ccccc4)CC3)C(=O)[C@@H]2OC(C)=O)cc1` (relative stereo) [Compound I-11] the IC50 (Calcium Channel) was 200 nM.
`COc1ccc([C@@H]2Sc3cc(Cl)ccc3N(CCCN3CCN(c4ccc(F)cc4)CC3)C(=O)[C@@H]2OC(C)=O)cc1` (relative stereo) [Compound I-12, 3-Acetoxy-5-[3-(4-(4-fluorophenyl)-piperazinyl)propyl]-2,3-dihydro-2-(4-methoxyphenyl)-8-chloro-1,5-benzothiazepin-4(5H)-one] was tested, and the inhibition at 1 µM (cultured cardiac cells) was 10%, the inhibition at 10 µM (cultured cardiac cells) was 87% and the inhibition in vivo at 1 mg/kg ([1]; 1 mg/kg iv) was 23%.
In the case of `COc1ccc([C@@H]2Sc3cc(Cl)ccc3N(CCN3CCN(c4ccc(F)cc4)CC3)C(=O)[C@@H]2OC(C)=O)cc1` (relative stereo) [Compound I-13, 3-Acetoxy-5-[2-(4-(4-fluorophenyl)-piperazinyl)ethyl]-2,3-dihydro-2-(4-methoxyphenyl)-8-chloro-1,5-benzothiazepin-4(5H)-one], the inhibition at 1 µM (cultured cardiac cells) is reported as 15% and the inhibition at 10 µM (cultured cardiac cells) is reported as 61%.
For `COc1ccc([C@@H]2Sc3cc(Cl)ccc3N(CCCN3CCC(c4ccccc4)(c4ccccc4)CC3)C(=O)[C@@H]2OC(C)=O)cc1` (relative stereo) [Compound I-14, 3-Acetoxy-5-[3-(4,4-diphenyl-1piperizinyl)propyl]-2,3-dihydro-2-(4-methoxyphenyl)-8-chloro-1,5-benzothiazepin-4(5H)-one], the IC50 (Calcium Channel) was 100 nM, the inhibition at 10 µM (cultured cardiac cells) was 83.6% and the “Decrease of heart rate (%)” value [2] was 9.8%. For the same compound, the “Antihypertensive action (%)” value [2] was 14%.
`COc1ccc([C@@H]2Sc3cc(Cl)ccc3N(CCCN3CCN(C(c4ccccc4)c4ccc(Cl)cc4)CC3)C(=O)[C@@H]2OC(C)=O)cc1` (relative stereo) [Compound I-16, 3-Acetoxy-5-[3-(4-(4-chlorobenzhydryl)-piperazinyl)propyl]-2,3-dihydro-2-(4-methoxyphenyl)-8-chloro-1,5-benzothiazepin-4(5H)-one] showed an IC50 (Calcium Channel) of 240 nM, an inhibition at 1 µM (cultured cardiac cells) of 18.4% and an inhibition at 10 µM (cultured cardiac cells) of 57%. The “Decrease of heart rate (%)” value [2] was 15% and the “Antihypertensive action (%)” value [2] was 19%.
With `COc1ccc([C@@H]2Sc3cc(Cl)ccc3N(CCCN3CCN(C(c4ccccc4)c4ccccc4)CC3)C(=O)[C@@H]2OC(C)=O)cc1` [Compound I-23, (2S-cis)-3-Acetoxy-5-[3-(4-(benzhydryl)-piperazinyl)propyl]-2,3-dihydro-2-(4-methoxyphenyl)-8-chloro-1,5-benzothiazepin-4(5H)-one] the inhibition at 1 µM (cultured cardiac cells) was 36.4%, the inhibition at 10 µM (cultured cardiac cells) was 87% and the “Decrease of heart rate (%)” value [2] was 12%. For the same compound, the “Antihypertensive action (%)” value [2] was 16% and the inhibition in vivo at 0.3 mg/kg [1] was 45%.
`COc1ccc([C@@H]2Sc3cc(Cl)ccc3N(CCCN3CCN(C(c4ccc(Cl)cc4)c4ccc(Cl)cc4)CC3)C(=O)[C@@H]2OC(C)=O)cc1` [Compound I-24, (2S-cis)-3-Acetoxy-5-[3-(4-(4-dichlorobenzhydryl)-1-piperazinyl)propyl]-2,3-dihydro-2-(4-methoxyphenyl)-8-chloro-l,5-benzothiazepin-4(5H)-one] gave an inhibition at 1 µM (cultured cardiac cells) of 14.1%, an inhibition at 10 µM (cultured cardiac cells) of 88% and an inhibition in vivo at 0.3 mg/kg [1] of 35%.
In the case of `COc1ccc([C@@H]2Sc3cc(Cl)ccc3N(CCCN3CCN(c4ccc(Cl)cc4)CC3)C(=O)[C@@H]2OC(C)=O)cc1` [Compound I-25, (2S-cis)-3-Acetoxy-5-[3-(4-(4-chlorophenyl)-1-piperazinyl)propyl]-2,3-dihydro-2-(4-methoxyphenyl)-8-chloro-l,5-benzothiazepin-4(5H)-one], the inhibition at 1 µM (cultured cardiac cells) is reported as 25.2% and the inhibition at 10 µM (cultured cardiac cells) is reported as 89%.
In the case of `COc1ccc([C@@H]2Sc3cc(Cl)ccc3N(CCCN3CCN(c4ccc(OC)cc4)CC3)C(=O)[C@@H]2OC(C)=O)cc1` [Compound I-29, (2S-cis)-3-Acetoxy-5-[3-(4-(4methoxyphenyl) -1-piperazinyl)propyl]methoxyphenyl-8-chloro-1,5-benzothiazepin-4(5H)-one], the inhibition at 1 µM (cultured cardiac cells) is reported as 30%.
Compound `COc1ccc([C@@H]2Sc3cc(Cl)ccc3N(CCCN3CCN(c4cc(OC)c(OC)c(OC)c4)CC3)C(=O)[C@@H]2OC(C)=O)cc1` [Compound I-32, (2S-cis)-3-Acetoxy-5-[3-(4-(3,4,5trimethoxyphenyl) - 1-piperazinyl)propyl]-2,3-dihydro-2-(4methoxyphenyl) -8-chloro-1,5-benzothiazepin-4 (5H)-one] has an inhibition at 10 µM (cultured cardiac cells) of 66.1%.
`COc1ccc([C@@H]2Sc3cc(Cl)ccc3N(CCCCN3CCN(c4ccccc4OC)CC3)C(=O)[C@@H]2OC(C)=O)cc1` [Compound I-33, (2S-cis)-3-Acetoxy-5-[4-(4-(2-methoxyphenyl)-1-piperazinyl)butyl]-2,3-dihydro-2-(4-methoxyphenyl)-8-chloro-1,5-benzothiazepin-4(5H)-one] was tested, and the inhibition at 1 µM (cultured cardiac cells) was 36.9% and the inhibition at 10 µM (cultured cardiac cells) was 87%.
With `COc1ccc([C@@H]2Sc3cc(Cl)ccc3N(CCCCCN3CCN(c4ccccc4OC)CC3)C(=O)[C@@H]2OC(C)=O)cc1` [Compound I-34, (2S-cis)-3-Acetoxy-5-[5-(4-(2-methoxyphenyl)-1-piperazinyl)pentyl]-2,3-dihydro-2-(4-methoxyphenyl)-8-chloro-l,5-benzothiazepin-4(5H)-one] the inhibition at 10 µM (cultured cardiac cells) was 80%.
